Data taken from US6914045B2, “Glycopeptide antibiotics” (Wyeth Holdings Corporation, priority 2001, dated 2005).
Converted amounts (≈) assume the structure as drawn.

Experiments:
Experiment in all cases: in vitro antibacterial evaluation, MIC by broth dilution
Type in all cases: cell-based
[1] = system: Enterococcus sp.; settings: broth dilution, 18 hours at 35° C.; for MIC Enterococcus faecalis (ATCC 29212): strain ATCC 29212; for MIC Enterococcus faecalis (GC 2242): strain GC 2242; for MIC Enterococcus faecium (GC 2243): strain GC 2243; for MIC Enterococcus faecalis (GC 2691): strain GC 2691; for MIC Enterococcus faecalis (GC 3059): strain GC 3059; for MIC Enterococcus faecalis (GC 4552): strain GC 4552; for MIC Enterococcus faecalis (GC 4553): strain GC 4553; for MIC Enterococcus faecalis (GC 4554): strain GC 4554; for MIC Enterococcus faecium (GC 4556): strain GC 4556; for MIC Enterococcus faecium (GC 4557): strain GC 4557; for MIC Enterococcus avium (GC 4558): strain GC 4558; for MIC Enterococcus faecalis (GC 6189): strain GC 6189
In short: (§1)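 Test organisms, which included recent clinical isolates resistant to methicillin, penicillin and/or vancomycin, were inoculated at 5×10^5 CFU/mL into Muller-Hinton II […] containing antibiotic at 64-0.06 μg/mL. Minimum inhibitory concentrations were then read as the lowest level inhibiting growth.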

[2] = system: Escherichia coli
In short: as §1

[3] = system: Staphylococcus sp.; settings: broth dilution, 18 hours at 35° C.; for MIC Staphylococcus aureus (GC 1131): strain GC 1131
In short: as §1

[4] = system: Streptococcus sp.; settings: broth dilution, 18 hours at 35° C.; for MIC Streptococcus pneumoniae (ATCC 6301): strain ATCC 6301; for MIC Streptococcus pneumoniae (GC 1894): strain GC 1894; for MIC Streptococcus pyogenes (GC 4563): strain GC 4563; for MIC Streptococcus agalactiae (GC 4564): strain GC 4564; for MIC Streptococcus pneumoniae (GC 4565): strain GC 4565
In short: as §1

**Q.** What does the source list for CC(c1ccccc1)C1NC(=O)CNC(=O)C(CO)NC(=O)C(C(O)C2CNC(=N)N2C2OC(CO)C(O)C(O)C2O)NC(=O)C(C(O)C2CNC(=N)N2)NC(=O)C(Cc2ccc(OC3OC(CO)C(OC4OC5COC(c6ccc(Oc7ccc(C(C)(C)C)cc7)cc6)OC5C(O)C4O)C(O)C3O)cc2)NC1=O (centres unmarked) [Example 181]?
**A.** MIC Enterococcus faecalis (ATCC 29212) ([1]; inoculum 5×10^5 CFU/mL): 2 µg/mL (≈ 1.31 µM); MIC Enterococcus faecalis (GC 2242) ([1]; inoculum 5×10^5 CFU/mL): 2 µg/mL (≈ 1.31 µM); MIC Enterococcus faecium (GC 2243) ([1]; inoculum 5×10^5 CFU/mL): 2 µg/mL (≈ 1.31 µM); MIC Enterococcus faecalis (GC 2691) ([1]; inoculum 5×10^5 CFU/mL): 4 µg/mL (≈ 2.61 µM); MIC Enterococcus faecalis (GC 3059) ([1]; inoculum 5×10^5 CFU/mL): 4 µg/mL (≈ 2.61 µM); MIC Enterococcus faecalis (GC 4552) ([1]; inoculum 5×10^5 CFU/mL): 2 µg/mL (≈ 1.31 µM); MIC Enterococcus faecalis (GC 4553) ([1]; inoculum 5×10^5 CFU/mL): 1 µg/mL (≈ 0.653 µM); MIC Enterococcus faecalis (GC 4554) ([1]; inoculum 5×10^5 CFU/mL): 2 µg/mL (≈ 1.31 µM); MIC Enterococcus faecium (GC 4556) ([1]; inoculum 5×10^5 CFU/mL): 4 µg/mL (≈ 2.61 µM); MIC Enterococcus faecium (GC 4557) ([1]; inoculum 5×10^5 CFU/mL): 4 µg/mL (≈ 2.61 µM); MIC Enterococcus avium (GC 4558) ([1]; inoculum 5×10^5 CFU/mL): 4 µg/mL (≈ 2.61 µM); MIC Enterococcus faecalis (GC 6189) ([1]; inoculum 5×10^5 CFU/mL): 2 µg/mL (≈ 1.31 µM); MIC Enterococcus faecalis (ATCC 29212) [1]: 2 µg/mL (≈ 1.31 µM); MIC Enterococcus faecalis (GC 2242) [1]: 2 µg/mL (≈ 1.31 µM); MIC Enterococcus faecium (GC 2243) [1]: 2 µg/mL (≈ 1.31 µM); MIC Enterococcus faecalis (GC 2691) [1]: 4 µg/mL (≈ 2.61 µM); MIC Enterococcus faecalis (GC 3059) [1]: 4 µg/mL (≈ 2.61 µM); MIC Enterococcus faecalis (GC 4552) [1]: 2 µg/mL (≈ 1.31 µM); MIC Enterococcus faecalis (GC 4553) [1]: 1 µg/mL (≈ 0.653 µM); MIC Enterococcus faecalis (GC 4554) [1]: 2 µg/mL (≈ 1.31 µM); MIC Enterococcus faecium (GC 4556) [1]: 4 µg/mL (≈ 2.61 µM); MIC Enterococcus faecium (GC 4557) [1]: 4 µg/mL (≈ 2.61 µM); MIC Enterococcus avium (GC 4558) [1]: 4 µg/mL (≈ 2.61 µM); MIC Enterococcus faecalis (GC 6189) [1]: 2 µg/mL (≈ 1.31 µM); MIC Escherichia coli (ATCC 25922) ([2]; strain ATCC 25922, 18 hours at 35° C.): >64 µg/mL; MIC Escherichia coli (GC 4559) ([2]; strain GC 4559, 18 hours at 35° C.): >64 µg/mL; MIC Escherichia coli (GC 4560) ([2]; strain GC 4560, 18 hours at 35° C.): 16 µg/mL (≈ 10.4 µM); MIC Staphylococcus aureus (GC 1131) ([3]; inoculum 5×10^5 CFU/mL): 4 µg/mL (≈ 2.61 µM); MIC Staphylococcus aureus (ATCC 29213) ([3]; strain ATCC 29213): 4 µg/mL (≈ 2.61 µM); MIC Staphylococcus aureus (GC 1131) [3]: 4 µg/mL (≈ 2.61 µM); MIC Staphylococcus aureus (GC 3051) ([3]; strain GC 3051): 4 µg/mL (≈ 2.61 µM); MIC Staphylococcus aureus (GC 3053) ([3]; strain GC 3053): 4 µg/mL (≈ 2.61 µM); MIC Staphylococcus aureus (GC 4541) ([3]; strain GC 4541): 4 µg/mL (≈ 2.61 µM); MIC Staphylococcus aureus (GC 4542) ([3]; strain GC 4542): 4 µg/mL (≈ 2.61 µM); MIC Staphylococcus aureus (GC 4544) ([3]; strain GC 4544): 4 µg/mL (≈ 2.61 µM); MIC Staphylococcus aureus (GC 4545) ([3]; strain GC 4545): 4 µg/mL (≈ 2.61 µM); MIC Staphylococcus aureus-SMITH (GC 4543) ([3]; strain GC 4543): 4 µg/mL (≈ 2.61 µM); MIC Staphylococcus haemolyticus (GC 4546) ([3]; strain GC 4546): 8 µg/mL (≈ 5.22 µM); MIC Coagulase Negative Staphylococcus (GC 4547) ([3]; strain GC 4547): 8 µg/mL (≈ 5.22 µM); MIC Coagulase Negative Staphylococcus (GC 4548) ([3]; strain GC 4548): 2 µg/mL (≈ 1.31 µM); MIC Coagulase Negative Staphylococcus (GC 4549) ([3]; strain GC 4549): 1 µg/mL (≈ 0.653 µM); MIC Coagulase Negative Staphylococcus (GC 4551) ([3]; strain GC 4551): 2 µg/mL (≈ 1.31 µM); MIC Coagulase Negative Staphylococcus (GC 6257) ([3]; strain GC 6257): 2 µg/mL (≈ 1.31 µM); MIC Streptococcus pneumoniae (ATCC 6301) ([4]; inoculum 5×10^5 CFU/mL): <0.06 µg/mL; MIC Streptococcus pneumoniae (GC 1894) ([4]; inoculum 5×10^5 CFU/mL): <0.06 µg/mL; MIC Streptococcus pyogenes (GC 4563) ([4]; inoculum 5×10^5 CFU/mL): 0.5 µg/mL (≈ 0.326 µM); MIC Streptococcus agalactiae (GC 4564) ([4]; inoculum 5×10^5 CFU/mL): <0.06 µg/mL; MIC Streptococcus pneumoniae (GC 4565) ([4]; inoculum 5×10^5 CFU/mL): <0.06 µg/mL; MIC Streptococcus pneumoniae (ATCC 6301) [4]: <0.06 µg/mL; MIC Streptococcus pneumoniae (GC 1894) [4]: <0.06 µg/mL; MIC Streptococcus pyogenes (GC 4563) [4]: 0.5 µg/mL (≈ 0.326 µM); MIC Streptococcus agalactiae (GC 4564) [4]: <0.06 µg/mL; MIC Streptococcus pneumoniae (GC 4565) [4]: <0.06 µg/mL
